Assay: absorption spectrum, light emission spectrum, molecular extinction coefficient and quantum efficiency in solvents
Assay type: physicochemical

ε (molecular extinction coefficient) (solvent DMSO) | λem (solvent DMSO) | λex (solvent DMSO) | φ (quantum efficiency) (solvent DMSO) | ε (molecular extinction coefficient) (solvent CH2Cl2) | λem (solvent CH2Cl2) | λex (solvent CH2Cl2) | φ (quantum efficiency) (solvent CH2Cl2) | ε (molecular extinction coefficient) (solvent H2O) | λem (solvent H2O) | λex (solvent H2O) | ε (molecular extinction coefficient) (solvent PBS) | λem (solvent PBS) | λex (solvent PBS) | ε (molecular extinction coefficient) (solvent EtOH) | λem (solvent EtOH) | λex (solvent EtOH) | φ (quantum efficiency) (solvent EtOH) | SMILES | φ (quantum efficiency) (solvent H2O) | φ (quantum efficiency) (solvent PBS) | further results
63,000 Lmol^−1cm^−1 | 479 nm | 456 nm | 0.900 | – | – | – | – | – | – | – | – | – | – | – | – | – | – | COC(=O)C1=CC2=C3N(CCC2OC1=O)c1ccccc1C3(C)C (centres unmarked) [Compound 1] | – | – | –
53,000 Lmol^−1cm^−1 | 503 nm | 474 nm | 0.928 | – | – | – | – | – | – | – | – | – | – | – | – | – | – | COC(=O)C1=CC2=C3N(CCC2OC1=O)c1ccc2ccccc2c1C3(C)C (centres unmarked) [Compound 6] | – | – | –
47,000 Lmol^−1cm^−1 | 516 nm | 492 nm | 0.910 | – | – | – | – | – | – | – | – | – | – | – | – | – | – | CC(=O)C1=CC2=C3N(CCC2OC1=O)c1ccc2ccccc2c1C3(C)C (centres unmarked) [Compound 9] | – | – | –
47,000 Lmol^−1cm^−1 | 519 nm | 494 nm | 0.935 | 49,000 Lmol^−1cm^−1 | 515 nm | 488 nm | 0.137 | 48,000 Lmol^−1cm^−1 | 516 nm | 492 nm | 51,000 Lmol^−1cm^−1 | 516 nm | 492 nm | 47,000 Lmol^−1cm^−1 | 516 nm | 490 nm | 0.872 | CC1(C)C2=C3C=C(C(=O)CCCC(=O)[O-])C(=O)OC3CCN2c2ccc3cc(S(=O)(=O)[O-])ccc3c21.[Na+].[Na+] (centres unmarked) [Compound 16] | 0.405 | 0.417 | –
42,000 Lmol^−1cm^−1 | 513 nm | 476 nm | – | 41,000 Lmol^−1cm^−1 | 511 nm | 470 nm | – | 38,000 Lmol^−1cm^−1 | 523 nm | 476 nm | – | – | – | 42,000 Lmol^−1cm^−1 | 519 nm | 474 nm | – | COC(=O)C1=CC2=C3N(CCC2OC1=O)c1cc2c(cc1C3(C)C)-c1ccccc1C2(C)C (centres unmarked) [Compound 60] | – | – | –
47,000 Lmol^−1cm^−1 | 525 nm | 480 nm | – | 46,000 Lmol^−1cm^−1 | 522 nm | 484 nm | – | 46,000 Lmol^−1cm^−1 | 516 nm | 468 nm | 46,000 Lmol^−1cm^−1 | 518 nm | 468 nm | 49,000 Lmol^−1cm^−1 | 525 nm | 480 nm | – | CC1(C)C2=C3C=C(C(=O)O)C(=O)OC3CCN2c2cc3c(cc21)-c1ccccc1C3(C)C (centres unmarked) [Compound 61] | – | – | –
46,000 Lmol^−1cm^−1 | 516 nm | 492 nm | 0.958 | 42,000 Lmol^−1cm^−1 | 511 nm | 486 nm | 0.944 | 26,000 Lmol^−1cm^−1 | 520 nm | 468 nm | 29,000 Lmol^−1cm^−1 | 520 nm | 486 nm | 47,000 Lmol^−1cm^−1 | 516 nm | 486 nm | 0.820 | CCOC(=O)CCCC(=O)C1=CC2=C3N(CCC2OC1=O)c1ccc2ccccc2c1C3(C)C (centres unmarked) [Compound 62] | 0.194 | 0.193 | –
15,000 Lmol^−1cm^−1 | 470 nm | 416 nm | – | 15,000 Lmol^−1cm^−1 | 466 nm | 414 nm | – | 17,000 Lmol^−1cm^−1 | 506 nm | 432 nm | 17,000 Lmol^−1cm^−1 | 507 nm | 434 nm | 15,000 Lmol^−1cm^−1 | 485 nm | 416 nm | – | CC1(C)C2=C3C=C(CC(=O)O)C(=O)OC3CCN2c2ccccc21 (centres unmarked) [Compound 63] | – | – | –
26,000 Lmol^−1cm^−1 | 472 nm | 412 nm | 0.84 | 22,000 Lmol^−1cm^−1 | 468 nm | 414 nm | 0.01 | 26,000 Lmol^−1cm^−1 | 500 nm | 422 nm | 27,000 Lmol^−1cm^−1 | 503 nm | 423 nm | 28,000 Lmol^−1cm^−1 | 483 nm | 408 nm | 0.78 | CC1(C)C2=C3C=C(CC(=O)[O-])C(=O)OC3CCN2c2ccc(S(=O)(=O)[O-])cc21.[Na+].[Na+] (centres unmarked) [Compound 64] | 0.91 | 0.95 | –

SMILES | ε (molecular extinction coefficient) (solvent DMSO) | λem (solvent DMSO) | λex (solvent DMSO) | φ (quantum efficiency) (solvent DMSO) | ε (molecular extinction coefficient) (solvent CH2Cl2) | λem (solvent CH2Cl2) | λex (solvent CH2Cl2) | φ (quantum efficiency) (solvent CH2Cl2) | ε (molecular extinction coefficient) (solvent H2O) | λem (solvent H2O) | λex (solvent H2O) | ε (molecular extinction coefficient) (solvent PBS) | λem (solvent PBS) | λex (solvent PBS) | ε (molecular extinction coefficient) (solvent EtOH) | λem (solvent EtOH) | λex (solvent EtOH) | φ (quantum efficiency) (solvent EtOH) | φ (quantum efficiency) (solvent H2O) | φ (quantum efficiency) (solvent PBS) | further results
CC1(C)C2=C3C=C(C(=O)[O-])C(=O)OC3CCN2c2ccc(S(=O)(=O)[O-])cc21.[Na+].[Na+] (centres unmarked) [Compound 2] | 30,000 Lmol^−1cm^−1 | 500 nm | 468 nm | 0.768 | 20,000 Lmol^−1cm^−1 | 495 nm | 429 nm | 0.169 | 45,000 Lmol^−1cm^−1 | 489 nm | 453 nm | 44,000 Lmol^−1cm^−1 | 487 nm | 451 nm | – | – | – | – | 0.718 | 0.796 | ε (molecular extinction coefficient) (solvent MeOH): 50,000 Lmol^−1cm^−1; λem (solvent MeOH): 493 nm; λex (solvent MeOH): 463 nm; φ (quantum efficiency) (solvent MeOH): 0.625
CC1(C)C2=C3C=CC(=O)OC3CCN2c2ccc(S(=O)(=O)[O-])cc21.[Na+] (centres unmarked) [Compound 3] | 27,000 Lmol^−1cm^−1 | 470 nm | 416 nm | 0.645 | 22,000 Lmol^−1cm^−1 | 464 nm | 403 nm | 0.227 | 28,000 Lmol^−1cm^−1 | 492 nm | 423 nm | 28,000 Lmol^−1cm^−1 | 492 nm | 423 nm | – | – | – | – | 0.764 | 0.759 | ε (molecular extinction coefficient) (solvent MeOH): 27,000 Lmol^−1cm^−1; λem (solvent MeOH): 484 nm; λex (solvent MeOH): 410 nm; φ (quantum efficiency) (solvent MeOH): 0.667
CC1(C)C2=C3C=C(C(=O)[O-])C(=O)OC3CCN2c2ccccc21.[Na+] (centres unmarked) [Compound 5] | 49,000 Lmol^−1cm^−1 | 490 nm | 466 nm | 0.913 | – | – | – | – | 50,000 Lmol^−1cm^−1 | 483 nm | 452 nm | 49,000 Lmol^−1cm^−1 | 483 nm | 454 nm | 51,000 Lmol^−1cm^−1 | 485 nm | 462 nm | 0.412 | 0.062 | 0.633 | –

Reference: US11292798B2, “Merocyanine-based compound and biomolecular labeling dye, kit and contrast agent composition comprising same” (SFC CO., LTD., priority 2017, dated 2022)
